Data on three compounds can be found in patent US20260240841A1, “COMBINATION OF HPK1 INHIBITOR AND AXL INHIBITOR IN CANCER THERAPY” (BOARD OF REGENTS, THE UNIVERSITY OF TEXAS SYSTEM, priority 2023, published 2026).

For one test, the system named is pancreatic cancer. Particulars: Ludwig et al.; cited from earlier work.
A further test relates to mouse PDAC models. Particulars: cited from earlier work.
The test system of test [1] is orthotopic KPC-Luc pancreatic tumors. Put plainly: Orthotopic KPC-Luc pancreatic cancer model treated with MRTX1133. In kind it is in vivo, mouse. The conditions noted are these: for tumor weight: 25 mg/kg twice daily for ten days, weighed seven days after completion, FIG. 10. The protocol: (§1) For sub-cutaneous xenograft studies, the C57BL/6 female or male mice aged 5-7 weeks (Jackson Labs) were used. 1×10^6 KPC-Luc cells or 2×10^5 B16F10 melanoma cells were injected into the dorsal region of the wild type (WT) or HPK1-mice. Animals were imaged using the IVIS Spectrum, PerkinElmer and Bruker ICON MRI at 3 and 10 days after successful implantation of KPC-Luc cells. Only mice with similar tumor volume (~150 mm^3) were used for treatment studies. These experiments were randomized. […] Mice were euthanized for tumor collection once tumor volume was approximately ~1000 mm^3. For orthotopic studies, 0.5×10^6 KPC-Luc cells were implanted orthotopically into WT C57BL/6 mice and/or HPK1^−/− mice pancreas. Bioluminescence imaging with the IVIS Spectrum (Perkin Elmer) was performed after intraperitoneal injection of 1.5 mg of D-luciferin (PerkinElmer). After image acquisition, the Living Image 4.7 software (PerkinElmer) was used for analysis of images. Therapy was initiated at day 10 post tumor cell injection. All mice were sacrificed on Day 35 for survival study or otherwise labeled in the Figures.
(§2) To examine the effects of pharmacological inhibition of Axl, Kras, and HPK1 with or without Anti-41BB/CD137 on tumor growth, Axl inhibitor (Bemcentinib MedChem Express) was dosed at 10 mg/kg/day for intraperitoneal injection (IP). HPK1-IN-7 (HPK1 inhibitor #1 MedChem Express) was dosed at 20 mg/kg/day orally, GNE1858 (HPK1 inhibitor #2 MedChem Express) was dosed at 10 mg/kg/day orally. KRAS^G12D inhibitor (MRTX1133, MedChem Express) was dosed at 25 mg/Kg twice daily for intraperitoneal injection. Anti-41BB (clone LOB12.3, BioXCell, BE0169) antibody and its corresponding isotype IgG controls were intraperitoneally administered at 200 μg per injection for three times per week. The duration of treatment was 10 days. Tumor size was measured every other day using the methods as previously described.
To further evaluate the association, tumor size was determined in mice treated with MRTX1133. […]

The next test has as its system KPC-Luc cells. Kind of test: KPC-Luc tumor growth in WT C57BL/6 mice under Axl inhibitor, HPK1 inhibitor, CD137 antibody and combinations. Particulars: treated 10 days. In kind it is in vivo, mouse. Here is the method:
as §1
To examine the effects of pharmacological inhibition of Axl, Kras, and HPK1 with or without Anti-41BB/CD137 on tumor growth, Axl inhibitor (Bemcentinib MedChem Express) was dosed at 10 mg/kg/day for intraperitoneal injection (IP). HPK1-IN-7 (HPK1 inhibitor #1 MedChem Express) was dosed at 20 mg/kg/day orally, GNE1858 (HPK1 inhibitor #2 MedChem Express) was dosed at 10 mg/kg/day orally. […] Tumor size was measured every other day using the methods as previously described.
Tumors were grown in wild-type mice, and treatment was performed as described above. Following treatment, tumors were excised from the mice and both tumor volume and tumor weight were measured.
To further study the synergistic effects of the combination therapy, tumors were grown in wild-type mice and treatment was performed as described above. Following treatment, tumors were excised from the mice and tumor weight was evaluated. […]

Another test relates to B16F10 melanoma cells. Kind of test: Subcutaneous B16F10 melanoma xenograft model. In kind it is in vivo, mouse. The conditions noted are these: for tumor weight: FIG. 12B. Here is the method: as §1, §2
To evaluate the therapeutic effect of an Axl inhibitor, bemcentinib, on melanoma, subcutaneous tumors of subcutaneous melanoma xenograft model of B16F10 cells in HPK1 knockout mice and wild type mice were treated with 10 mg/kg/day bemcentinib by intraperitoneal injection (IP) twice daily for 10 days. The tumor volumes (FIG. 12A) and tumor weight (FIG. 12B) were measured at 12 days after the completion of treatment.
Subcutaneous melanoma xenograft tumors of B16F10 cells were grown in wild-type mice, and treatment was performed as described above. Following treatment, tumors were excised from the mice at day 12 after completion of therapy and both tumor volume and tumor weight were measured.

Test [2] deals with orthotopic xenograft tumors of KPC-Luc cells. Kind of test: Multicolor flow cytometry of intra-tumoral hematopoietic cells from KPC-Luc xenograft tumors. In kind it is in vivo, mouse. Here is the method: For flow cytometry studies, orthotopic xenograft tumors of KPC-Luc cells from the HPK1−/− or wild type control were digested in digestion buffer (1 mg/mL collagenase IV and 10 U/mL DNase I in Dulbecco's Modified Eagle Medium (DMEM)) at 37° C. for 30 minutes. After thorough mixing, the samples were pushed through a 70-μm cell strainer and washed with 40 ml DMEM without fetal bovine serum (FBS), The digested cells were re-suspended in 37 % Percoll and overlaid on top of the same volume of 70% Percoll. After centrifugation at 800 g for 20 minutes with break off, the lymphocytes were isolated from the interface and rinsed with PBS. The cells were first stained by Zombie UV, followed by incubation in a cocktail comprising the following antibodies in cell staining buffer: anti-CD45, anti-CD38, anti-B220, anti-CD11b, anti-F4/80, anti-Ly6C, anti-Ly6G, anti-CD4, anti-IA/IE, and anti-CD8g. After washing, the stained cells were submitted for multiple-color flow cytometry. The results were processed using FlowJo software.
Following tumor xenograft imaging, the tumors were excised from the mice and subsequently prepared for flow cytometry as described above.
On the technique in general: A flow cytometer gives signals particle by particle.

The test system is the same in test [3]. Put plainly: IVIS bioluminescence imaging of orthotopic KPC-Luc xenograft tumors treated with Axl inhibitor. In kind it is in vivo, mouse. Particulars: imaged 17 days post implantation with KPC-Luc cells. Here is the method:
as §1, with “All mice were sacrificed on Day 35 for survival study or otherwise labeled in the Figures.” left out
To examine the effects of pharmacological inhibition of Axl, Kras, and HPK1 with or without Anti-41BB/CD137 on tumor growth, Axl inhibitor (Bemcentinib MedChem Express) was dosed at 10 mg/kg/day for intraperitoneal injection (IP). […] Tumor size was measured every other day using the methods as previously described. […]

For `Nc1nc(Nc2ccc3c(c2)CC[C@@H](N2CCCC2)CC3)nn1-c1cc2c(nn1)-c1ccccc1CCC2` [BGB324], in the test with pancreatic cancer, the “aggressiveness of pancreatic cancer” value is “inhibits the aggressiveness of pancreatic cancer”, the “sensitivity of pancreatic cancer cells to gemcitabine” value was “sensitizes pancreatic cancer cells to gemcitabine” and the tumor immune microenvironment entry is “induces an immune stimulatory microenvironment”.

For the compound `C#Cc1c(F)ccc2cc(O)cc(-c3ncc4c(N5CC6CCC(C5)N6)nc(OC[C@@]56CCCN5C[C@H](F)C6)nc4c3F)c12` [MRTX1133], in the test on mouse PDAC models, the tumor growth entry is reported as “shrink tumors or halt the growth”. The tumor weight entry in test [1] (HPK1 knockout mice) is given as “significant decrease in tumor weight”; in test [1] (wild type mice), “slight decrease in tumor weight”. The “response of tumor size shown by luminescence” value in test [1] (wild-type mice versus HPK1 knockout mice, 25 mg/kg IP twice daily, imaged 7 days after treatment, FIG. 9) is given as “less responsive than the HPK1 knockout mice”.

For `Nc1nc(Nc2ccc3c(c2)CC[C@@H](N2CCCC2)CC3)nn1-c1cc2c(nn1)-c1ccccc1CCC2` [bemcentinib], the tumor volume entry with KPC-Luc cells (measured 15 days after completion of treatment, FIG. 6A) is listed as “did not significantly decrease”; in the test with B16F10 melanoma cells (HPK1 knockout mice, 10 mg/kg/day IP for 10 days, 12 days after completion, FIG. 12A) it was “significant decrease”; in the test on B16F10 melanoma cells (wild type mice, 10 mg/kg/day IP for 10 days, 12 days after completion, FIG. 12A), “slight decrease”; in the test on B16F10 melanoma cells (wild-type mice, inhibitor comparison, treated 10 days, day 12 after completion, FIG. 13A), “did not significantly decrease”. Further, the “tumor weight compared to control (in words)” value with KPC-Luc cells (weighed 12 days after completion, control about 0.6 grams, FIG. 7) is “only minimally reduced”. The “tumor weight compared to control” value in the test on KPC-Luc cells (weighed 15 days after completion of treatment, FIG. 6B) is listed as “reduced the tumor weight to a small degree”; in the test on B16F10 melanoma cells (wild-type mice, inhibitor comparison, treated 10 days, day 12 after completion, FIG. 13B) it was “reduced the tumor weight to a small degree”. The tumor weight result in the test on B16F10 melanoma cells (HPK1 knockout mice, 10 mg/kg/day IP for 10 days, 12 days after completion) is listed as “significant decrease”; in the test with B16F10 melanoma cells (wild type mice, 10 mg/kg/day IP for 10 days, 12 days after completion), “slight decrease”. The “CD3+ T cells and CD8+ T cells in the tumor microenvironment” value in test [2] (HPK1 knockout mice, FIG. 4B) is reported as “increased”. Further, the “infiltration of macrophages and myeloid suppressor cells” value in test [2] (HPK1 knockout mice, tumor microenvironment, FIG. 4B) is given as “decreased the infiltration”. Moreover, the “number or function of B cells, CD3+ cells, CD4+ T cells, CD8+ T cells, CD11b+ cells, M-MDSC's, PMN-MDSC's, macrophages, neutrophils” value in test [2] (wild-type mice, intra-tumoral, FIG. 4A) is on record as “did not increase or decrease”. For the same compound, in test [3] (HPK1 knockout mice, FIG. 3B), the “tumor growth (luminescence)” value was “inhibited the growth of the tumor”. The “tumor volume (luminescence)” value in test [3] (wild type mice, FIG. 3A) is “little to no decrease in the tumor volume”.
